From ChEMBL document CHEMBL1156106 (J Med Chem, 2009)

Tests used:
Rattus norvegicus [1] = test: Effect on behavioural activity in rat assessed as cocaine-induced lever response at 2.5 mg/kg, ip pretreated with cocaine for 15 mins by drug-discrimination studies; format: functional; settings: route intraperitoneal
Rattus norvegicus [2] = test: Effect on behavioural activity in ip dosed rat assessed as cocaine-induced lever response pretreated with cocaine by drug-discrimination studies; format: functional
[3] = target: T1, Sodium-dependent serotonin transporter (Homo sapiens, UniProt P31645); test: biochemical; format: cell-based, HEK293
T1 sequence (P31645 whole entry): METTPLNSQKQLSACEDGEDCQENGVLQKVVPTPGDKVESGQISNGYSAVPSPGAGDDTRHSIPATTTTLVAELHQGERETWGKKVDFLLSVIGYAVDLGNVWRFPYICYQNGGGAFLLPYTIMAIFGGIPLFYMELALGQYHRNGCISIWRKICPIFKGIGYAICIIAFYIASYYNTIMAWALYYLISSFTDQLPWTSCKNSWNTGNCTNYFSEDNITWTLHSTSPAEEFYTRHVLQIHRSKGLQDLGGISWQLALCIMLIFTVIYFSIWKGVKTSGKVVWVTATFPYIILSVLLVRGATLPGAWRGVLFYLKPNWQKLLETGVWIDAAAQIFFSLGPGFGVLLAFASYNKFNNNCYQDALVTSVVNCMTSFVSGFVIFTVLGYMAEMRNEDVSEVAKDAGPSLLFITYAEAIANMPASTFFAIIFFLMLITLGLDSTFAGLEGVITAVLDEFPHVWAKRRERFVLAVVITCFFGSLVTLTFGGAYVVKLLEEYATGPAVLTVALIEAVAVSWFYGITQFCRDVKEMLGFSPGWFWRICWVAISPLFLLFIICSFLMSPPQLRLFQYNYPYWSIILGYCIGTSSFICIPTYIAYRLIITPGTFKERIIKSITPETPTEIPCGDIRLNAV

Rattus norvegicus [4] = test: Effect on behavioural activity in rat assessed as cocaine-induced lever response at 5 mg/kg, ip pretreated with cocaine for 15 mins by drug-discrimination studies; format: functional; settings: route intraperitoneal
Rattus norvegicus [5] = test: Effect on behavioural activity in rat assessed as cocaine-induced lever response at 50 mg/kg, ip pretreated with cocaine for 15 mins by drug-discrimination studies; format: functional; settings: route intraperitoneal
Mus musculus [6] = test: Antidepressant activity in ip dosed mouse assessed as time to reach peak stimulation of locomotor activity; format: functional
Rattus norvegicus [7] = test: Effect on behavioural activity in rat assessed as cocaine-induced lever response at 100 mg/kg, ip pretreated with cocaine for 15 mins by drug-discrimination studies; format: functional; settings: route intraperitoneal
[8] = target: T2, Sodium-dependent noradrenaline transporter (Homo sapiens, UniProt P23975); test: Displacement of [125I]RTI55 from cloned human NET expressed in HEK293 cells; format: cell-based
T2 sequence (P23975 whole entry): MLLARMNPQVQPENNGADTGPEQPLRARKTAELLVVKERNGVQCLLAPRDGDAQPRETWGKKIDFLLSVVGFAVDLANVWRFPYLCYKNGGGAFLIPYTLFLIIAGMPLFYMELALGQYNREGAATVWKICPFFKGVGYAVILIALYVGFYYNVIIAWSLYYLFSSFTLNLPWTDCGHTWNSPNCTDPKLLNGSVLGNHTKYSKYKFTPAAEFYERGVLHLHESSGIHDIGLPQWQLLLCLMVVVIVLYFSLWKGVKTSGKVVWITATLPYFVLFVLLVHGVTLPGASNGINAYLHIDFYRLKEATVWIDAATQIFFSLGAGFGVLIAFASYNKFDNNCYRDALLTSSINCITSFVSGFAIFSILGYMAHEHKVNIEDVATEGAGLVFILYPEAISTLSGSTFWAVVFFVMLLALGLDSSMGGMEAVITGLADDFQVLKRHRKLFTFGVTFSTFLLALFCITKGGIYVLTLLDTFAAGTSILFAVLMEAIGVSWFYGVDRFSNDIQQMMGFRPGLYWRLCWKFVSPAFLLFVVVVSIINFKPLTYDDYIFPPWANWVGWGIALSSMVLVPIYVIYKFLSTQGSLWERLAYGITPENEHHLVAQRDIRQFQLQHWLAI

Mus musculus [9] = test: Antidepressant activity in ip dosed mouse assessed as stimulation of locomotor activity relative to cocaine; format: functional
Rattus norvegicus [10] = test: Effect on behavioural activity in rat assessed as cocaine-induced lever response at 10 mg/kg, ip pretreated with cocaine for 15 mins by drug-discrimination studies; format: functional; settings: route intraperitoneal
Rattus norvegicus [11] = test: Effect on behavioural activity in rat assessed as cocaine-induced lever response at 0.5 mg/kg, ip pretreated with cocaine for 15 mins by drug-discrimination studies; format: functional; settings: route intraperitoneal
Rattus norvegicus [12] = test: Effect on behavioural activity in rat assessed as cocaine-induced lever response at 25 mg/kg, ip pretreated with cocaine for 15 mins by drug-discrimination studies; format: functional; settings: route intraperitoneal
Rattus norvegicus [13] = test: Effect on behavioural activity in rat assessed as cocaine-induced lever response at 1 mg/kg, ip pretreated with cocaine for 15 mins by drug-discrimination studies; format: functional; settings: route intraperitoneal
Mus musculus [14] = test: Antidepressant activity in ip dosed mouse assessed as duration of locomotor activity; format: functional
Mus musculus [15] = test: Antidepressant activity in ip dosed mouse assessed as stimulation of locomotor activity; format: functional
[16] = target: T3, Sodium-dependent dopamine transporter (Homo sapiens, UniProt Q01959); test: Displacement of [125I]RTI55 from cloned human DAT expressed in HEK293 cells; format: cell-based
T3 sequence (Q01959 whole entry): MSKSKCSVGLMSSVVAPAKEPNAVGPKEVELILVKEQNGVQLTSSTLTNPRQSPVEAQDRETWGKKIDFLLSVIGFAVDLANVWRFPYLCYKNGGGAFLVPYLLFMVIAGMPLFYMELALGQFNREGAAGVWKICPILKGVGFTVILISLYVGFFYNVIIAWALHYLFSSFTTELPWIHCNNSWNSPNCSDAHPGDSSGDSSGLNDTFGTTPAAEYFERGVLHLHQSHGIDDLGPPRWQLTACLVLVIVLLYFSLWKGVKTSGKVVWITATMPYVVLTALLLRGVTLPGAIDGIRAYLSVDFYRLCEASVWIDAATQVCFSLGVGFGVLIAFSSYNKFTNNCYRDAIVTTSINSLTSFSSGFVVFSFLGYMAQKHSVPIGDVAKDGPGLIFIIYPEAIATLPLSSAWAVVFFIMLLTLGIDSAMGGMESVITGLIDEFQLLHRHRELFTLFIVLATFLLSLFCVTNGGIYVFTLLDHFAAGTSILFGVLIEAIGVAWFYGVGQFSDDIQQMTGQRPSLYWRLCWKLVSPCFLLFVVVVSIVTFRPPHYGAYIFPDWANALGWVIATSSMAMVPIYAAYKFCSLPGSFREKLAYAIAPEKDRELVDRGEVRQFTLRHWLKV

[17] = target: T2, Sodium-dependent noradrenaline transporter; test: Inhibition of [3H]norepinephrine reuptake at human NET expressed in HEK293 cells; format: cell-based
[18] = target: T3, Sodium-dependent dopamine transporter; test: Inhibition of [3H]dopamine reuptake at human DAT expressed in HEK293 cells; format: cell-based
[19] = target: T1, Sodium-dependent serotonin transporter; test: Inhibition of [3H]serotonin reuptake at human SERT expressed in HEK293 cells; format: cell-based
Rattus norvegicus [20] = test: Effect on behavioural activity in rat assessed as cocaine-induced lever response at 1 mg/kg, po pretreated with cocaine for 360 mins by drug-discrimination studies; format: functional
Rattus norvegicus [21] = test: Effect on behavioural activity in rat assessed as cocaine-induced lever response at 1 mg/kg, po pretreated with cocaine for 90 mins by drug-discrimination studies; format: functional
Rattus norvegicus [22] = test: Effect on behavioural activity in rat assessed as cocaine-induced lever response at 1 mg/kg, po pretreated with cocaine for 180 mins by drug-discrimination studies; format: functional
Rattus norvegicus [23] = test: Effect on behavioural activity in rat assessed as cocaine-induced lever response at 1 mg/kg, po pretreated with cocaine for 41 mins by drug-discrimination studies; format: functional
Rattus norvegicus [24] = test: Effect on behavioural activity in po dosed rat assessed as cocaine-induced lever response pretreated with cocaine by drug-discrimination studies; format: functional
Rattus norvegicus [25] = test: Effect on behavioural activity in rat assessed as cocaine-induced lever response at 50 mg/kg, po pretreated with cocaine for 45 mins by drug-discrimination studies; format: functional
Rattus norvegicus [26] = test: Effect on behavioural activity in rat assessed as cocaine-induced lever response at 5 mg/kg, po pretreated with cocaine for 90 mins by drug-discrimination studies; format: functional
Rattus norvegicus [27] = test: Effect on behavioural activity in rat assessed as cocaine-induced lever response at 10 mg/kg, po pretreated with cocaine for 360 mins by drug-discrimination studies; format: functional
Rattus norvegicus [28] = test: Effect on behavioural activity in rat assessed as cocaine-induced lever response at 50 mg/kg, po pretreated with cocaine for 360 mins by drug-discrimination studies; format: functional
Rattus norvegicus [29] = test: Effect on behavioural activity in rat assessed as cocaine-induced lever response at 10 mg/kg, po pretreated with cocaine for 180 mins by drug-discrimination studies; format: functional
Rattus norvegicus [30] = test: Effect on behavioural activity in rat assessed as cocaine-induced lever response at 25 mg/kg, po pretreated with cocaine for 45 mins by drug-discrimination studies; format: functional
Rattus norvegicus [31] = test: Effect on behavioural activity in rat assessed as cocaine-induced lever response at 10 mg/kg, po pretreated with cocaine for 45 mins by drug-discrimination studies; format: functional
Rattus norvegicus [32] = test: Effect on behavioural activity in rat assessed as cocaine-induced lever response at 5 mg/kg, po pretreated with cocaine for 180 mins by drug-discrimination studies; format: functional
Rattus norvegicus [33] = test: Effect on behavioural activity in rat assessed as cocaine-induced lever response at 25 mg/kg, po pretreated with cocaine for 360 mins by drug-discrimination studies; format: functional
Rattus norvegicus [34] = test: Effect on behavioural activity in rat assessed as cocaine-induced lever response at 25 mg/kg, po pretreated with cocaine for 180 mins by drug-discrimination studies; format: functional
Rattus norvegicus [35] = test: Effect on behavioural activity in rat assessed as cocaine-induced lever response at 10 mg/kg, po pretreated with cocaine for 90 mins by drug-discrimination studies; format: functional
Rattus norvegicus [36] = test: Effect on behavioural activity in rat assessed as cocaine-induced lever response at 50 mg/kg, po pretreated with cocaine for 90 mins by drug-discrimination studies; format: functional
Rattus norvegicus [37] = test: Effect on behavioural activity in rat assessed as cocaine-induced lever response at 5 mg/kg, po pretreated with cocaine for 45 mins by drug-discrimination studies; format: functional
Rattus norvegicus [38] = test: Effect on behavioural activity in rat assessed as cocaine-induced lever response at 50 mg/kg, po pretreated with cocaine for 180 mins by drug-discrimination studies; format: functional
Rattus norvegicus [39] = test: Effect on behavioural activity in rat assessed as cocaine-induced lever response at 25 mg/kg, po pretreated with cocaine for 90 mins by drug-discrimination studies; format: functional

| Compound | Activity (Rattus norvegicus [1]) | ED50 (Rattus norvegicus [2]) | Ki [3] | Activity (Rattus norvegicus [4]) | Activity (Rattus norvegicus [5]) | Time to peak locomotor stimulation (Mus musculus [6]) | Activity (Rattus norvegicus [7]) | Ki [8] | Activity (Mus musculus [9]) | Activity (Rattus norvegicus [10]) | Activity (Rattus norvegicus [12]) | Activity (Rattus norvegicus [13]) | Time (Mus musculus [14]) | ED50 (Mus musculus [15]) | Ki [16] | also measured |
| --- | --- | --- | --- | --- | --- | --- | --- | --- | --- | --- | --- | --- | --- | --- | --- | --- |
| CC(C)NC(C)C(=O)c1cccc(Cl)c1 (configuration not stated) | 27% | 8.8 mg/kg | > 10 µM | 43.8% | 73.5% | 20 min | 94.9% | > 10 µM | 46% | 53.3% | 78.6% | 21.2% | 50 min | 6.2 mg/kg | – | Activity (Rattus norvegicus [11]): 0.3% |
| CC(C)CC(NC(C)(C)C)C(=O)c1cccc(Cl)c1 (configuration not stated) | – | – | 6.2 µM | – | – | 260 min | – | 2.3 µM | 89% | – | – | – | 60 min | 25.7 mg/kg | 0.14 µM | IC50 [17]: 0.36 µM; IC50 [18]: 0.44 µM; IC50 [19]: > 10 µM |
| CC(NC(C)(C)C)C(=O)c1ccc(Cl)cc1 (configuration not stated) | – | – | > 10 µM | 0.1% | – | – | 33.3% | > 10 µM | – | 32.7% | 18.1% | – | – | – | – | Activity (Rattus norvegicus [20]): 0%; Activity (Rattus norvegicus [21]): 0%; Activity (Rattus norvegicus [22]): 0%; Activity (Rattus norvegicus [23]): 0% |
| Cc1ccc(C(=O)C(C)NC(C)(C)C)cc1 (configuration not stated) | – | 17.3 mg/kg | > 10 µM | 0.6% | 66.7% | 30 min | 100% | – | 26% | – | 16.7% | – | 60 min | 3.8 mg/kg | > 10 µM | – |
| CC(NC(C)(C)C)C(=O)c1cccc(Cl)c1 (configuration not stated) [BUPROPION] | 0.7% | – | – | 0% | 66.7% | 0 min | – | – | 87% | 67.1% | 66.3% | 24.1% | 130 min | 5.5 mg/kg | – | ED50 (Rattus norvegicus [24]): 22.8 mg/kg; Activity (Rattus norvegicus [25]): 83%; Activity (Rattus norvegicus [26]): 0%; Activity (Rattus norvegicus [27]): 0%; Activity (Rattus norvegicus [28]): 0%; Activity (Rattus norvegicus [29]): 0%; Activity (Rattus norvegicus [30]): 50%; Activity (Rattus norvegicus [31]): 17%; Activity (Rattus norvegicus [32]): 2.5%; Activity (Rattus norvegicus [33]): 1%; Activity (Rattus norvegicus [34]): 22%; Activity (Rattus norvegicus [35]): 1%; Activity (Rattus norvegicus [36]): 50%; Activity (Rattus norvegicus [37]): 33%; Activity (Rattus norvegicus [38]): 17%; Activity (Rattus norvegicus [39]): 0% |
